Source: the supplement of paper PMC10307832

Columns and labels:
Assay in all cases: relative viability (nuclei count vs DMSO), 5 days (fraction); higher = more cells survive
GW-2580 + Phenformin = compound: COC1=CC=C(C=C1)COC2=C(C=C(C=C2)CC3=CN=C(N=C3N)N)OC [GW-2580] + N=C(N)NC(=N)NCCc1ccccc1 [Phenformin] (partner 250 µM)
Summary of the method: (§1)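 Lung cancer cell lines, seeded in 1536-well plates, were treated the following day by pin tool with a single drug or with five library-drug doses (not always all listed) in √10 steps on top of a fixed anchor-drug dose. Cells were fixed and nuclei stained in one step after 5 days, and nuclei were counted. Relative viability is the nuclei count for treated wells divided by that for vehicle wells, reported as medians of duplicate plates.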

GW-2580 + Olaparib = compound: COC1=CC=C(C=C1)COC2=C(C=C(C=C2)CC3=CN=C(N=C3N)N)OC [GW-2580] + O=C(c1cc(Cc2n[nH]c(=O)c3ccccc23)ccc1F)N1CCN(C(=O)C2CC2)CC1 [Olaparib] (partner 8 µM)
Summary of the method: as §1

Fedratinib + Trametinib = compound: Cc1cnc(Nc2ccc(OCCN3CCCC3)cc2)nc1Nc1cccc(S(=O)(=O)NC(C)(C)C)c1 [Fedratinib] + CC(=O)Nc1cccc(-n2c(=O)n(C3CC3)c(=O)c3c(Nc4ccc(I)cc4F)n(C)c(=O)c(C)c32)c1 [Trametinib] (partner 0.02 µM)
Summary of the method: as §1

Fedratinib + OSI-027 = compound: Cc1cnc(Nc2ccc(OCCN3CCCC3)cc2)nc1Nc1cccc(S(=O)(=O)NC(C)(C)C)c1 [Fedratinib] + COc1cccc2cc(-c3nc([C@H]4CC[C@H](C(=O)O)CC4)n4ncnc(N)c34)[nH]c12 [OSI-027] (partner 0.5 µM)
Summary of the method: as §1

Fedratinib + Crizotinib = compound: Cc1cnc(Nc2ccc(OCCN3CCCC3)cc2)nc1Nc1cccc(S(=O)(=O)NC(C)(C)C)c1 [Fedratinib] + C[C@@H](Oc1cc(-c2cnn(C3CCNCC3)c2)cnc1N)c1c(Cl)ccc(F)c1Cl [Crizotinib] (partner 1 µM)
Summary of the method: as §1

| Cell Line | relative viability (GW-2580 + Phenformin; first compound 0.08 µM) | relative viability (GW-2580 + Phenformin; first compound 0.8 µM) | relative viability (GW-2580 + Phenformin; first compound 2.53 µM) | relative viability (GW-2580 + Phenformin; first compound 8 µM) | relative viability (GW-2580 + Olaparib; first compound 0.08 µM) | relative viability (GW-2580 + Olaparib; first compound 0.8 µM) | relative viability (GW-2580 + Olaparib; first compound 2.53 µM) | relative viability (GW-2580 + Olaparib; first compound 8 µM) | relative viability (Fedratinib + Trametinib; first compound 0.1 µM) | relative viability (Fedratinib + Trametinib; first compound 0.3162 µM) | relative viability (Fedratinib + Trametinib; first compound 1 µM) | relative viability (Fedratinib + OSI-027; first compound 0.1 µM) | relative viability (Fedratinib + OSI-027; first compound 0.3162 µM) | relative viability (Fedratinib + OSI-027; first compound 1 µM) | relative viability (Fedratinib + Crizotinib; first compound 0.1 µM) | relative viability (Fedratinib + Crizotinib; first compound 0.3162 µM) | relative viability (Fedratinib + Crizotinib; first compound 1 µM) |
| --- | --- | --- | --- | --- | --- | --- | --- | --- | --- | --- | --- | --- | --- | --- | --- | --- | --- |
| NCI-H727 | 0.662 | 0.574 | 0.499 | 0.652 | 0.637 | 0.63 | 0.699 | 0.69 | 0.38 | 0.426 | 0.392 | 0.504 | 0.674 | 0.534 | 0.791 | 0.688 | 0.661 |
| NCI-H2087 | 0.526 | 0.473 | 0.352 | 0.444 | 0.668 | 0.934 | 0.608 | 0.542 | 0.203 | 0.177 | 0.213 | 0.486 | 0.453 | 0.425 | 0.735 | 0.879 | 0.831 |
| BEN | 0.266 | 0.33 | 0.255 | 0.317 | 0.877 | 1.12 | 1.03 | 0.962 | 0.846 | 0.945 | 0.926 | 0.267 | 0.297 | 0.27 | 0.716 | 0.91 | 0.784 |
| LCLC-103H | 0.345 | 0.328 | 0.331 | 0.376 | 0.799 | 0.895 | 0.733 | 0.736 | 0.699 | 0.683 | 0.659 | 0.415 | 0.454 | 0.404 | 1.07 | 0.922 | 1.01 |
| EKVX | 0.244 | 0.264 | 0.212 | 0.233 | 0.905 | 0.986 | 0.812 | 0.89 | 0.333 | 0.293 | 0.363 | 0.702 | 0.745 | 0.758 | 1.05 | 0.889 | 0.958 |
| LXF-289 | 0.514 | 0.521 | 0.489 | 0.506 | 1.24 | 1.14 | 1.06 | 1.19 | 0.676 | 0.61 | 0.621 | 0.796 | 0.792 | 0.791 | 0.81 | 0.79 | 0.804 |
| NCI-H650 | 0.43 | 0.474 | 0.392 | 0.481 | 0.373 | 0.379 | 0.364 | 0.472 | 1.04 | 1.04 | 0.869 | 0.456 | 0.469 | 0.454 | – | 0.682 | 0.668 |
| NCI-H1650 | 0.516 | 0.461 | 0.372 | 0.536 | 0.704 | 0.951 | 0.719 | 0.774 | 0.534 | 0.545 | 0.642 | – | 0.69 | 0.515 | 0.706 | 0.926 | 0.888 |
| NCI-H2085 | 0.756 | 0.739 | 0.682 | 0.769 | 0.741 | 0.784 | 0.84 | 0.757 | 0.598 | 0.512 | 0.458 | 0.586 | 0.855 | 0.711 | 0.769 | 0.953 | 0.812 |
| LC-2-ad | 0.595 | 0.674 | 0.634 | 0.682 | 0.723 | 0.727 | 0.702 | 0.722 | 0.898 | 0.904 | 0.933 | 0.854 | 0.94 | 0.609 | 0.474 | 0.444 | 0.446 |
| COR-L 105 | 0.529 | 0.478 | 0.508 | 0.491 | 0.658 | 0.633 | 0.909 | 0.68 | 0.39 | 0.442 | 0.422 | 0.633 | 0.649 | 0.497 | 0.539 | 0.686 | 0.391 |
| NCI-H1355 | 0.426 | 0.496 | 0.347 | 0.397 | 0.804 | 0.836 | 0.669 | 0.691 | 0.442 | 0.387 | 0.412 | 0.323 | 0.437 | 0.258 | 1.06 | 1.04 | 1.07 |
| H3255 | 0.277 | 0.848 | 0.702 | 0.359 | 0.618 | 0.607 | 0.566 | 0.508 | 0.506 | 0.69 | 0.706 | 0.521 | 0.671 | 0.565 | 0.873 | 0.805 | 0.723 |
| NCI-H1993 | 0.573 | 0.461 | 0.486 | 0.518 | 0.985 | 1.07 | 1.06 | 1.04 | 0.547 | 0.419 | 0.421 | 0.519 | 0.522 | 0.524 | 0.747 | 0.773 | 0.848 |
| NCI-H1734 | 0.35 | 0.374 | 0.38 | 0.359 | 0.65 | 0.589 | 0.585 | 0.636 | 0.605 | 0.583 | 0.636 | 0.607 | 0.588 | 0.536 | 0.629 | 0.692 | 0.629 |
| HOP-62 | 0.758 | 0.744 | 0.637 | 0.655 | 0.512 | 0.809 | 0.179 | 0.402 | 0.355 | 0.392 | 0.393 | 0.849 | 0.647 | 0.719 | 0.786 | 0.891 | 0.784 |
| LOU-NH91 | 0.692 | 0.757 | 0.611 | 0.66 | 0.916 | 0.946 | 0.897 | 0.98 | 0.753 | 0.781 | 0.752 | 0.669 | 0.72 | 0.664 | 0.701 | 0.764 | 0.75 |
| ChaGo-K-1 | 0.594 | 0.476 | 0.454 | 0.514 | 0.423 | 0.457 | 0.388 | 0.393 | 0.765 | 0.841 | 0.873 | 0.431 | 0.577 | 0.504 | 0.851 | 1.06 | 0.975 |
